Test results reported in patent US20070264199A1, “Magnetic nanoparticle composition and methods for using the same” (priority 2005, published 2007).
Where two headings read alike, the source gives them in different places.

Legend:
[1] = Drug loading in magnetic nanoparticles; format: physicochemical; settings: for Total Drug Loading (Mean ± SEM): total drug added 10.0 % w/w, n = 2 or 3
Procedure: For incorporation in nanoparticles, hydrochloride salt of the drug (DOX.HCl) was converted to water-insoluble base (DOX) using established methods (Yolles, et al. (1978) Acta Pharm. Suec. 15:382-388). […] Stirring was continued overnight (˜16 hours) to allow partitioning of the drug into the oleic acid shell surrounding iron-oxide nanoparticles. Drug-loaded nanoparticles were separated from the unentrapped drug using a magnet (12200 Gauss; Edmund Scientific, Tonawanda, N.Y.). Nanoparticles were washed twice by re-suspending in distilled water and separated using a magnetic field. […] For drug extraction, 2 mL of 12.5% volume/volume methanolic solution in chloroform was added to the dried sample. The samples were shaken for 24 hours (Environ shaker, model no. 3527; Lab-Line Instruments, Melrose Park, Ill.). Since DOX has greater solubility in this combination of solvents than in methanol or chloroform alone, it was used for the extraction. Nanoparticles were centrifuged for 10 minutes at 16,000 g using an EPPENDORF® microcentrifuge (5417R; Eppendorf-Netheler-Hinz-GmbH, Hamburg, Germany). […] VARIAN® Inc., Walnut Creek, Calif.) at λex=485 nm and λem=591 nm. A standard plot was prepared under identical conditions to calculate the amount of drug loaded in the nanoparticles. There was no further increase in the amount of drug extracted when nanoparticles were kept for extraction for more than 24 hours. […] The cap was removed and ethanol was allowed to evaporate overnight. Magnetite nanoparticles were separated from the free drug using a magnetic field and particles were washed two times with distilled water.

MCF-7 cells = assay: Confocal laser scanning microscopy of drug uptake and localization; format: cell-based; settings: 2 hours of incubation
Procedure: MCF-7 cells were seeded in Bioptechs plates (Bioptechs, Butler, Pa.) at 50,000 cells/plate in 1 mL serum-containing medium 24 hours prior to the experiment. A dispersion of drug-loaded or void nanoparticles and drug solution (10 μM) were prepared in cell-culture medium as described herein. […] Cells were washed three times with PBS before imaging them under a confocal microscope (Zeiss Confocal microscope LSM410 equipped with argon-krypton laser; Zeiss, Thornwood, N.Y.) at λex=488 nm and a long-pass filter with a cut-on filter of 515 nm for detecting the emission light.

[2] = Antiproliferative IC50 of paclitaxel, doxorubicin and combination, in solution or in magnetic nanoparticles

| Structure (SMILES) | Doxorubicin Loaded ([1]; added doxorubicin 5.0 % w/w + paclitaxel 5.0 % w/w) [% w/w] | Doxorubicin Loaded ([1]; added doxorubicin 10.0 % w/w, paclitaxel 0.0) [% w/w] | Total Drug Loading (Mean ± SEM) [1] [% w/w] | intracellular localization of drug (MCF-7 cells) | IC50 ([2]; read-out: IC50 Nanoparticle) [µg/mL] | IC50 ([2]; read-out: IC50 Soluble) [µg/mL] | Paclitaxel Loaded ([1]; added paclitaxel 5.0 % w/w + doxorubicin 5.0 % w/w) [% w/w] | Paclitaxel Loaded ([1]; added paclitaxel 10.0 % w/w, doxorubicin 0.0) [% w/w] |
| --- | --- | --- | --- | --- | --- | --- | --- | --- |
| COc1cccc2c1C(=O)c1c(O)c3c(c(O)c1C2=O)C[C@@](O)(C(=O)CO)C[C@@H]3O[C@H]1C[C@H](N)[C@H](O)[C@H](C)O1 [Doxorubicin] | 3.7 | 8.2 | 8.2 | nuclear localization | 0.795 ± 0.177 | 0.103 ± 0.0178 |  |  |
| CC(=O)O[C@H]1C(=O)[C@@]2(C)[C@H]([C@H](OC(=O)c3ccccc3)[C@]3(O)C[C@H](OC(=O)[C@H](O)[C@@H](NC(=O)c4ccccc4)c4ccccc4)C(C)=C1C3(C)C)[C@]1(OC(C)=O)CO[C@@H]1C[C@@H]2O [Paclitaxel] |  |  | 9.5 |  | 0.0106 ± 0.0006 | 0.0098 ± 0.0005 | 4.8 | 9.5 |
